This is an account of results in ChEMBL document CHEMBL6121063, “Identification of a Potent and Selective CDK9 Degrader as a Targeted Therapeutic Option for the Treatment of Small-Cell Lung Cancer” (J Med Chem, 2025).

Assay [1] has as its target T1, Protein cereblon/Cyclin-dependent kinase 9 (Homo sapiens, UniProt P50750+Q96SW2). Nature of the assay: PROTAC activity at CRBN/CDK9 in human NCI-H446 cells assessed as induction of CDK9 degradation at 10 nM by Western blot analysis relative to control. Type of assay: cell-based. For orientation: In western blotting, separated proteins are transferred to a membrane and probed.

The subject of a further assay is NCI-H69. Nature of the assay: Antiproliferative activity against human NCI-H69 cells assessed as inhibition of cell growth incubated for 72 hrs by CCK8 assay. It is filed as functional, cell-based. As to conditions: NCI-H69, 72 h. (Tetrazolium dyes change colour on reduction, which living cells bring about.)
For the next assay, the system named is NCI-H446. Nature of the assay: Antiproliferative activity against human NCI-H446 cells assessed as inhibition of cell growth incubated for 72 hrs by CCK8 assay. Type of assay: functional, cell-based. As to conditions: NCI-H446, 72 h.
In assay [2] the target is T1, Protein cereblon/Cyclin-dependent kinase 9. As to the kind of experiment: PROTAC activity at CRBN/CDK9 in human NCI-H69 cells assessed as induction of CDK9 degradation at 10 nM by Western blot analysis relative to control. It is filed as cell-based.

T1 sequence (P50750 whole entry, looked up): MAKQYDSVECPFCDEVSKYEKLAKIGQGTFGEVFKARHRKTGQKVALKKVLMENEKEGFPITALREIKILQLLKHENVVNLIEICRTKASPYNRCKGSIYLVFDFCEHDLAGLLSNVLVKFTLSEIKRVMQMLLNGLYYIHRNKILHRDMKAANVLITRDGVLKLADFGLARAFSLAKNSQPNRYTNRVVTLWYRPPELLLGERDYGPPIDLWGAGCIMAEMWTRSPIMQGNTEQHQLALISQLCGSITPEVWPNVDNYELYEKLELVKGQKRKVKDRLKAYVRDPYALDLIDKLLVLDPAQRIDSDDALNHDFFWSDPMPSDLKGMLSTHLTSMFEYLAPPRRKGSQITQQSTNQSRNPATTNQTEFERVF
T1 sequence (Q96SW2 whole entry, looked up): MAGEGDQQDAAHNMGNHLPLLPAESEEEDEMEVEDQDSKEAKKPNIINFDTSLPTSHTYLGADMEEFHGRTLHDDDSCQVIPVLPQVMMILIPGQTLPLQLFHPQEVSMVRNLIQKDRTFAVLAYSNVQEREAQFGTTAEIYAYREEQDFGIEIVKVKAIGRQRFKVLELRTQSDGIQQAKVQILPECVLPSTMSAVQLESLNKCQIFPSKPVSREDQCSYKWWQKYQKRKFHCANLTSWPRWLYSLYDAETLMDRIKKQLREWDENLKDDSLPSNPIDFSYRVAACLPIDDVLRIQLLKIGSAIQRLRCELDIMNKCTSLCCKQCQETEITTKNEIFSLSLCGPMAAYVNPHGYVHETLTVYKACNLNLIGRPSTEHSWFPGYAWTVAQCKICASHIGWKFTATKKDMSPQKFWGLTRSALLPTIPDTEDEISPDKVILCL

Regarding `O=C1CCC(N2C(=O)c3cccc(NCCCCCCN4CCC(NC(=O)c5n[nH]cc5NC(=O)c5c(Cl)cccc5Cl)CC4)c3C2=O)C(=O)N1` (configuration not stated), the Activity in assay [1] was determined as 39.4%; in assay [2] it was 34%. In addition, the results for the IC50 with NCI-H69 and in the assay on NCI-H446 were 95.3 nM and 54.2 nM, respectively.
Regarding `O=C1CCC(N2C(=O)c3ccc(N4CCC(OC(=O)CN5CCC(NC(=O)c6n[nH]cc6NC(=O)c6c(Cl)cccc6Cl)CC5)CC4)cc3C2=O)C(=O)N1` (configuration not stated), the results for the Activity in assay [1] and in assay [2] were 18.6% and 25.2%, respectively. Besides, the IC50 (commonly the concentration needed to halve the response being measured) in the assay with NCI-H69 was 268 nM; with NCI-H446, over 1000 nM.
On the same counts, the results for `O=C1CCC(N2C(=O)c3ccc(N4CCN(C(=O)CCCC(=O)N5CCC(NC(=O)c6n[nH]cc6NC(=O)c6c(Cl)cccc6Cl)CC5)CC4)cc3C2=O)C(=O)N1` (configuration not stated) are 3.22%, 3.8%, 261 nM and 352 nM.
As to `O=C1CCC(N2C(=O)c3ccc(N4CC5CN(CC(=O)N6CCC(NC(=O)c7n[nH]cc7NC(=O)c7c(Cl)cccc7Cl)CC6)CC5C4)cc3C2=O)C(=O)N1` (configuration not stated), the Activity in assay [1] worked out at 38.9%; in assay [2] it was 49.4%. Besides, the IC50 is 142 nM in the assay with NCI-H69 and 156 nM in the assay with NCI-H446.
For `O=C1CCC(Nc2ccc(N3CCN(CC4CCN(CC(=O)N5CCC(NC(=O)c6n[nH]cc6NC(=O)c6c(Cl)cccc6Cl)CC5)CC4)CC3)c(F)c2)C(=O)N1` (configuration not stated), in that order: 79.3%, 66.1%, 44.2 nM and 56.1 nM.
On the same counts, the results for `O=C1CCC(N2C(=O)c3cccc(NCCCCC(=O)N4CCC(NC(=O)c5n[nH]cc5NC(=O)c5c(Cl)cccc5Cl)CC4)c3C2=O)C(=O)N1` (configuration not stated) are 9.92%, 3.91%, over 1000 nM and 772 nM.
For `O=C1CCC(N2C(=O)c3cccc(NCCCCCCCN4CCC(NC(=O)c5n[nH]cc5NC(=O)c5c(Cl)cccc5Cl)CC4)c3C2=O)C(=O)N1` (configuration not stated), in that order: 21.3%, 10.6%, 179 nM and 62.9 nM.
Turning to `O=C1CCC(N2C(=O)c3ccc(N4CCN(C(=O)CN5CCC(CN6CCC(NC(=O)c7n[nH]cc7NC(=O)c7c(Cl)cccc7Cl)CC6)CC5)CC4)cc3C2=O)C(=O)N1` (configuration not stated), the Activity in assay [1] came to 49.9%; in assay [2], 51.5%. The IC50 in the assay with NCI-H69 is 5.75 nM; with NCI-H446, 18.1 nM.
For `O=C1CCC(N2C(=O)c3ccc(N4CCN(C(=O)CN5CCC(NC(=O)c6n[nH]cc6NC(=O)c6c(Cl)cccc6Cl)CC5)CC4)cc3C2=O)C(=O)N1` (configuration not stated), in that order: 51.9%, 44.2%, 53.8 nM and 17.9 nM.
On the same counts, the results for `O=C1CCC(N2C(=O)c3ccc(N4CCN(C(=O)CCC(=O)N5CCC(NC(=O)c6n[nH]cc6NC(=O)c6c(Cl)cccc6Cl)CC5)CC4)cc3C2=O)C(=O)N1` (configuration not stated) are 31.8%, 39.1%, 42.5 nM and 31.7 nM.
For `O=C1CCC(N2C(=O)c3cccc(NCCCCCC(=O)N4CCC(NC(=O)c5n[nH]cc5NC(=O)c5c(Cl)cccc5Cl)CC4)c3C2=O)C(=O)N1` (configuration not stated), in that order: 27.1%, 17.1%, over 1000 nM and over 1000 nM.
As to `O=C1CCC(N2C(=O)c3ccc(N4CCN(CC(=O)N5CCC(NC(=O)c6n[nH]cc6NC(=O)c6c(Cl)cccc6Cl)CC5)CC4)cc3C2=O)C(=O)N1` (configuration not stated), the Activity turned out to be 30.9% in assay [1] and 45.5% in assay [2]. The IC50 in the assay on NCI-H69 worked out at 726 nM; in the assay with NCI-H446 it was 349 nM.
On to `O=C1CCC(N2C(=O)c3cccc(NCCCCCCC(=O)N4CCC(NC(=O)c5n[nH]cc5NC(=O)c5c(Cl)cccc5Cl)CC4)c3C2=O)C(=O)N1` (configuration not stated), for which the Activity in assay [1] is 11.2%; in assay [2], 0.132%. The IC50 in the assay with NCI-H69 and with NCI-H446 was over 1000 nM in each case.
